Data published in patent US10857105B2, “Compounds and compositions for intracellular delivery of therapeutic agents” (ModernaTX, Inc., priority 2017, dated 2020).

How the values were obtained:
luciferase (Luc) mRNA [1] = experiment: Luciferase expression (whole body bioluminescence) after intravenous administration to mice; assay type: in vivo; conditions: for Novel lipid/MC3 expression ratio, i.v. / Novel lipid/MC3 ratio, i.v.: intravenous, luciferase; for Novel lipid/MC3 expression ratio, i.v.: 6 hr. time point, relative to MC3 formulation; for Novel lipid/MC3 ratio, i.v.: Table 3G, 6 hr. timepoint, relative to MC3
In short: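 Luc mRNA nanoparticles were given IV at 0.5 mg/kg to groups of six mice, and whole-body bioluminescent flux was imaged 3, 6 and 24 h post-dose. Flux AUC for each lipid formulation was reported as a ratio to the MC3 reference formulation.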

modified luciferase = experiment: Luciferase expression in liver, lung, spleen and femur 6 hours after intravenous administration to mice; assay type: in vivo; conditions: 6 hours after intravenous 0.5 mpk, mice
In short: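 Mice (n=3) got a single 0.5 mpk IV dose of each nanoparticle composition, with MC3 and PBS controls alongside. Organ luminescence flux was read 6 h post-dose.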

[2] = Encapsulation efficiency of RNA in nanoparticle compositions (RIBOGREEN assay); assay type: physicochemical
In short: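 Lipid nanoparticles (ionisable lipid:DSPC:cholesterol:PEG-DMG 50:10:38.5:1.5 mol %) carrying N1-methylpseudouridine luciferase or hEPO mRNA diluted to about 5 μg/mL in TE, pH 7.5, with or without 2% Triton X-100, 15 min at 37° C. RiboGreen fluorescence (ex ~480, em ~520 nm) blank-subtracted; free RNA = intact/disrupted signal.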

luciferase (Luc) mRNA [3] = experiment: Luciferase expression after intramuscular administration to mice; assay type: in vivo; conditions: intramuscular; for Novel lipid/MC3 expression ratio, i.m. Luc: luciferase, 6 hr. time point, relative to MC3 formulation
Excerpt: The numbers 1-7 in this figure correspond to MC3, Compounds 168-170, and 173-175 respectively.
FIGS. 18A and 18B show the results of luciferase expression measured upon intramuscular administration of various nanoparticle compositions to CD-1 mice at 0.01 mpk. FIG. 18A is a bar graph showing total flux at 6 hr after administration. The numbers above each bar indicate the expression ratio relative to MC3. […] Numbers 1-11 in the Figures refer to compositions containing the following: 1: MC3, 2: Compound 143, 3: Compound 49; 4: Compound 113; 5: Compound 61; 6: Compound 72; 7: Compound 75; 8: Compound 71; 9: Compound 128; 10: Compound 156; 11: Compound 157.
The numbers 1-9 in this figure correspond to MC3, and Compounds 178, 181, 182, 218, 198, 200, 233, and 239, respectively.
The total flux (measured by area under the curve, AUC) induced by administration of a formulation including a given lipid relative to that induced by administration of a formulation including MC3 was also measured for several lipids.
Sample formulations including modified luciferase (Luc) mRNA prepared and administered intramuscularly and the resulting expression and immunogenicity were evaluated simultaneously. Formulations including compounds according to Formula (I), (IA), (IB), (II), (IIa), (IIb), (IIc), (IId), (IIe), (IIf), (IIg), or (III) were prepared and administered at dose of and 0.01 mpk.

IL-6, IP-10 = experiment: Cytokine induction (IL-6, IP-10) in mice 6 hours after intravenous administration; assay type: in vivo; design: unit not given here; conditions: intravenous 0.5 mpk
In short: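 IL-6 and IP-10 concentrations determined 6 hours after a single intravenous 0.5 mpk dose of lipid nanoparticle formulation in mice, with MC3 and PBS as comparators.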

[4] = Particle size and polydispersity index of nanoparticle compositions (Zetasizer Nano ZS); assay type: physicochemical
In short: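 Formulations of ionizable lipid, DSPC, cholesterol and PEG-DMG (50:10:38.5:1.5 mol %) carrying Luc or hEPO mRNA with all uridines as N1-methyl pseudouridine. Dynamic light scattering in 1×PBS gave particle size and polydispersity; zeta potential read in 15 mM PBS.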

[5] = Lipid clearance: mouse liver tissue level and % dose remaining in liver after intravenous administration; assay type: in vivo; conditions: mouse, liver, 0.5 mg/kg
[6] = Table 1A, lipid:DSPC:cholesterol:PEG-DMG 50:10:38.5:1.5 mol %
[7] = Table 1E, compositions for subcutaneous administration
[8] = Table 1D, compositions for subcutaneous administration, # formulated with hEPO mRNA
[9] = Table 1B, formulated with hEPO mRNA

Structure (SMILES) | EE [2, 6] [%] | Size [4, 6] [nm] | concentration at 6 h [5] [ng/g] | concentration at 24 h [5] [ng/g] | also measured
CCCCCCCCCN(CCCO)CCCCCCCC(=O)OC(CCCCCCCC)CCCCCCCC [Compound 7, Heptadecan-9-yl 8-((3-hydroxypropyl)(nonyl)amino)octanoate] | 86.10 | 118.9 |  |  | Novel lipid/MC3 expression ratio, i.v. (luciferase (Luc) mRNA [1]): 0.88; Total Flux, Liver (modified luciferase): 2.49E+09; Total Flux, Lung (modified luciferase): 3.95E+07; Total Flux, Spleen (modified luciferase): 4.83E+08; Novel lipid/MC3 expression ratio, i.m. Luc (luciferase (Luc) mRNA [3]): 1.10; Cytokine induction, IL-6 (IL-6, IP-10): 116.35; Cytokine induction, IP-10 (IL-6, IP-10): 4959.16
CCCCCCCCCOC(=O)CCCCCCCN(CCO)CCCCCCCCCC(=O)OC(CCCCCCCC)CCCCCCCC [Compound 23, Heptadecan-9-yl 10-((2-hydroxyethyl)(8-(nonyloxy)-8-oxooctyl)amino) decanoate] | 92.68 | 104.5 |  |  | Novel lipid/MC3 expression ratio, i.v. (luciferase (Luc) mRNA [1]): 0.04; Novel lipid/MC3 expression ratio, i.m. Luc (luciferase (Luc) mRNA [3]): 0.30; Cytokine induction, IL-6 (IL-6, IP-10): 94.00; Cytokine induction, IP-10 (IL-6, IP-10): 1015.95; Size [4, 7]: 70.5 nm
CCCCCCCCCC(=O)OC(C)CCCCCCN(CCO)CCCCCCCC(=O)OC(CCCCCCCC)CCCCCCCC (stereo not drawn) [Compound 98, 8-((8-(Heptadecan-9-yloxy)-8-oxooctyl)(2-hydroxyethyl)amino)octan-2-yl decanoate] | 94.4 |  | 24800 | 13600 | Novel lipid/MC3 ratio, i.v. (luciferase (Luc) mRNA [1]): 3.16; Size [4, 8]: 74.8 nm
CCCCCCCCCOC(=O)CCCCCCCN(CCCCCCCC(=O)OC(CCCCCCCC)CCCCCCCC)CCCNS(C)(=O)=O [Compound 109, Heptadecan-9-yl 8-((3-(methylsulfonamido)propyl)(8-(nonyloxy)-8-oxooctyl)amino)octanoate] |  | 81.1 |  |  | Novel lipid/MC3 expression ratio, i.v. (luciferase (Luc) mRNA [1]): 0.35; Total Flux, Liver (modified luciferase): 8.17E+08; Total Flux, Lung (modified luciferase): 6.03E+06; Total Flux, Spleen (modified luciferase): 4.81E+07; EE [2, 9]: 98.29%; Total flux 6 hours after intramuscular administration, 0.01 mpk Dose (luciferase (Luc) mRNA [3]; Luc mRNA, 0.01 mpk, 6 hours): 1.18E+08 p/s; Size [4, 9]: 75 nm; Size [4, 7]: 67.0 nm
CCCCCCCCCOC(=O)CCCCCCCN(CCCCCCCC(=O)OC(CCCCCCCC)CCCCCCCC)C(C)CO (stereo not drawn) [Compound 157, Heptadecan-9-yl 8-((1-hydroxypropan-2-yl)(8-(nonyloxy)-8-oxooctyl)amino)octanoate] | 96.04 | 61 |  |  | AUC (luciferase (Luc) mRNA [1]; intravenous administration (Table 3D)): 2.481E+011 p/s*h; Total Flux, Liver (modified luciferase): 2.27E+09; Total Flux, Lung (modified luciferase): 6.70E+06; Total Flux, Spleen (modified luciferase): 5.15E+07; Novel lipid/MC3 expression ratio, i.m. Luc (luciferase (Luc) mRNA [3]): 0.79
CCCCCCCCCOC(=O)CCCCCCCN(CCO)CCCCCCCC(=O)OC(CCC1CC1CCCC)CCC1CC1CCCC (stereo not drawn) [Compound 160, 1,5-Bis(2-butylcyclopropyl)pentan-3-yl 8-((2-hydroxyethyl)(8-(nonyloxy)-8-oxooctyl)amino)octanoate] | 94.0 | 89.0 | 51.5 | 0 | 
CCCCCCCCC(CCCCCCCC)OC(=O)CCCCCCCN(CCO)C(C)CCCCCCCCOC(=O)CCCCCCC (stereo not drawn) [Compound 161, Heptadecan-9-yl 8-((2-hydroxyethyl)(10-(octanoyloxy)decan-2-yl)amino)octanoate] | 94.3 | 67.6 | 187 | 0 | 
CCCCCCCCC(CCCCCCCC)C(=O)OCCCCCCCN(CCO)C(C)CCCCCCCCOC(=O)CCCCCCC (stereo not drawn) [Compound 162, 7-((2-Hydroxyethyl)(10-(octanoyloxy)decan-2-yl)amino)heptyl 2-octyldecanoate] | 94.1 | 72.7 | 261 | 0 | 
CCCCCCCCCOC(=O)C(C)CCCCCCN(CCO)CCCCCCCOC(=O)C(CCCCCCCC)CCCCCCCC (stereo not drawn) [Compound 163, 7-((2-Hydroxyethyl)(7-methyl-8-(nonyloxy)-8-oxooctyl)amino)heptyl 2-octyldecanoate] | 93.2 | 88.3 | 32100 | 17900 | Novel lipid/MC3 ratio, i.v. (luciferase (Luc) mRNA [1]): 3.45; Size [4, 8]: 78.0 nm
CCCCCCCCCC(C)(O)CCCCCCCCN(CCO)CCCCCCCC(=O)OC(CCCCCCCC)CCCCCCCC (stereo not drawn) [Compound 171, Heptadecan-9-yl 8-((9-hydroxy-9-methyloctadecyl)(2-hydroxyethyl)amino)octanoate] | 85.0 | 100.5 | 47000 | 32800 | 
CCCCCCCCC(CCCCCCCC)OC(=O)CCCCCCCN(CCO)CCCCCCCC(=O)O[C@H](C)CCCCCCCC [Compound 172, (R)-Decan-2-yl 8-((8-(heptadecan-9-yloxy)-8-oxooctyl)(2-hydroxyethyl)amino)octanoate] | 95.4 | 77.3 | 16000 | 2990 | 
CCCCCCCCCOC(=O)CCCCCCCN(CCO)CCCCCCCC(=O)OC(COCCCCCC)COCCCCCC [Compound 183, 1,3-Bis(hexyloxy)propan-2-yl 8-((2-hydroxyethyl)(8-(nonyloxy)-8-oxooctyl)amino)octanoate] | 32.3 | 245.3 | 69.9 | 0 | 
CCCCCCCCC(CCCCCCCC)OC(=O)CCCCCCCN(CCO)CCCCCCCC(=O)OCC(C)CCCCCCC (stereo not drawn) [Compound 184, Heptadecan-9-yl 8-((2-hydroxyethyl)(8-((2-methylnonyl)oxy)-8-oxooctyl)amino)octanoate] | 94.2 | 77.2 | 260 | 0 | EE [2, 9]: 96.5%; Size [4, 9]: 85.8 nm
CCCCCCCCCCCOC(=O)CCCCCN(CCO)CCCCCC(=O)OC(CCCCCCCCCC)CCCCCCCCCC [Compound 185, Henicosan-11-yl 6-((2-hydroxyethyl)(6-oxo-6-(undecyloxy)hexyl)amino)hexanoate] | 98.3 | 69.6 | 31200 | 27000 | 
CCCCCCCOC(=O)CCCCCCCCCN(CCO)CCCCCCCCCC(=O)OC(CCCCCC)CCCCCC [Compound 186, Heptyl 10-((2-hydroxyethyl)(10-oxo-10-(tridecan-7-yloxy)decyl)amino)decanoate] | 87.2 | 92.2 | 42.8 | 0 | 
